Experimental data from US10703756B2, “Pyrrolo[2,3-D]pyrimidinyl, pyrrolo[2,3-B]pyrazinyl, pyrrolo[2,3-B]pyridinyl acrylamides and epoxides thereof” (Pfizer Inc., priority 2015, dated 2020).
pIC50: −log10 of the molar value. Where two headings read alike, the source gives them in different places.

How the values were obtained:
JAK3 enzyme [1] = biological target: T1, JAK3 enzyme (Homo sapiens, UniProt P52333); experiment: JAK Caliper Enzyme Assay at 4 μM ATP; assay type: biochemical
T1 sequence (P52333 1-1124): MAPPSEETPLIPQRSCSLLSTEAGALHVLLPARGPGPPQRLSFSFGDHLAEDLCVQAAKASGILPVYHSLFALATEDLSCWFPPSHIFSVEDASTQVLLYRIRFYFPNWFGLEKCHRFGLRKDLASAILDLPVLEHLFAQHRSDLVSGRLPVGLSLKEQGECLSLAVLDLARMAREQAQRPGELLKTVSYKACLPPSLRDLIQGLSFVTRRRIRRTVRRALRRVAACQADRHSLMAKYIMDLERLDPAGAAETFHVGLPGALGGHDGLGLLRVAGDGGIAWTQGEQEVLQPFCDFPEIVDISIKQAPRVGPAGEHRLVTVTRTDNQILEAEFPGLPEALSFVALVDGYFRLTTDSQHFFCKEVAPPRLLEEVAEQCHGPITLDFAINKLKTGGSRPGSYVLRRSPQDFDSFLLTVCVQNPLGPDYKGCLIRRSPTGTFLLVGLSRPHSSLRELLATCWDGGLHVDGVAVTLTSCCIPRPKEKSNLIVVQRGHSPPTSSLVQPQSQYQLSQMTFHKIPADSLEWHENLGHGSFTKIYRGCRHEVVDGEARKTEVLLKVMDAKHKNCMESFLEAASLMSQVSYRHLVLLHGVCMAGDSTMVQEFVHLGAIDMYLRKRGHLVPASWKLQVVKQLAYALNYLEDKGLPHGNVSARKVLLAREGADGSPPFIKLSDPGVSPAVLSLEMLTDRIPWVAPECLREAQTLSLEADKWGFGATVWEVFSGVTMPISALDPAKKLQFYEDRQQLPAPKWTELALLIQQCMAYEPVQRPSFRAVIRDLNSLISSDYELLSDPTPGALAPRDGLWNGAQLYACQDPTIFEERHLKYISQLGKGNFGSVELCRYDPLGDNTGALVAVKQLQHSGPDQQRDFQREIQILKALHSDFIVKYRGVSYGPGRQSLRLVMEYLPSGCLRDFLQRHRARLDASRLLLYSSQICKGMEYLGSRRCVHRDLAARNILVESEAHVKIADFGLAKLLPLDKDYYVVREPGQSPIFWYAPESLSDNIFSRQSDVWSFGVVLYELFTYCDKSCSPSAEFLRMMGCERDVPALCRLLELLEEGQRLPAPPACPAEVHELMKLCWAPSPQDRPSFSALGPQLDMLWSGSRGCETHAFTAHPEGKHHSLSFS
In short: (§1)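 First, compound stocks in DMSO were serially diluted half-log over 11 points, starting at 600 μM. Next, reactions ran with batch-optimized enzyme and timing targeting 20%-30% phosphorylation. Finally, wells were sampled and product separated from substrate peptide electrophoretically.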

JAK3 enzyme [2] = biological target: T1, JAK3 enzyme; experiment: JAK Caliper Enzyme Assay at 1 mM ATP; assay type: biochemical
In short: as §1

[3] = Stability of JAK3 Covalent Inhibitors in Human Whole Blood; assay type: in vitro ADME; conditions: 1 μM test compound, 37° C., 180 min incubation; for half-life at 1 μM: both sexes, read-out: Human blood stability t1/2
Experimental: Stability of JAK3 Covalent Inhibitors in Rat and Human Whole Blood
Rat blood was collected from 3 male Sprague-Dawley rats (200-250 g, Charles River Laboratories) and pooled for each study. Human blood was collected from healthy subjects at the Occupational Health & Wellness Center at Pfizer, Groton, Conn. and pooled for each study. Both rat and human blood was collected freshly into K2-EDTA tubes and kept on ice. An aliquot of the blood was transferred to microtubes and pre-warmed for 10 min at 37° C. using a heat block. The test compound was then added (1 μM final concentration) and the incubation was continued for 180 min at 37° C. in duplicates. An aliquot of the incubation mixture was removed at designated time points during the course of the incubation, mixed with an aliquot of acetonitrile containing an internal standard, vortexed and centrifuged. The resulting supernatants were removed and subjected to LC-MS/MS analyses to determine parent compound concentrations. Peak area ratios of the parent compound vs the internal standard were used to determine the % of parent compound remaining vs incubation time.

[4] = test system: IL-15 induced P-STAT5 in human PBMC; experiment: PBMC IL-15 Induced P-STAT5; assay type: cell-based; conditions: for pIC50: human PBMC, IL-15 final 41 ng/mL, read-out: PBMC IL15_pSTAT5_IC50
In short: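 Thawed human PBMC, rested in human plasma, were preincubated 15 min at 37 °C with compound (0.2% DMSO), then stimulated 15 min with IL-15 at 41 ng/mL final. After paraformaldehyde fixation and methanol permeabilisation, Alexa Fluor 647 anti-STAT5 staining overnight at 4 °C was analysed by flow cytometry on total lymphocytes.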

Row | pIC50 (JAK3 enzyme [1]) | pIC50 (JAK3 enzyme [2]) | half-life at 1 μM [3] | Compound | pIC50 [4] | Human blood stability t1/2 [3] | IC50 ([4]; Homo sapiens, PBMC, read-out: PBMC IL15_pSTAT5_IC50 (nM))
1 | 8.79 | 6.51 | 208 min | C=CC(=O)N1CC[C@H](COc2cnc3[nH]cc(C(=O)N[C@@H](C)COC)c3n2)C1 (single isomer, unassigned) [Example 11] |  |  | 
2 | 8.16 | 6.04 | 160 min | C=CC(=O)N1CCC(Oc2cnc3[nH]cc(-c4ncnn4CC)c3n2)CC1 [Example 121, 1-(4-((7-(1-ethyl-1H-1,2,4-triazol-5-yl)-5H-pyrrolo[2,3-b]pyrazin-2-yl)oxy)piperidin-1-yl)prop-2-en-1-one] |  |  | 
3 |  | 7.11 | > 360 min | C=CC(=O)N1C[C@H](Oc2cnc3[nH]cc(C(=O)N[C@@H](C)COC)c3n2)CC[C@@H]1C (single isomer, unassigned) [Example 81] |  |  | 
4 | 8.54 | 6.33 | 83 min | C=CC(=O)N(C)C1CN(c2cnc3[nH]cc(C(=O)N[C@@H](C)COC)c3n2)C1 [Example 85, 2-{3-[acryloyl(methyl)amino]azetidin-1-yl}-N-[(2S)-1-methoxypropan-2-yl]-5H-pyrrolo[2,3-b]pyrazine-7-carboxamide] |  |  | 
5 | 9.29 | 8.40 | 308 min | C=CC(=O)N1CCC(Nc2cnc3[nH]cc(C(=O)NCCC)c3n2)CC1 [Example 170, 2-[(1-acryloylpiperidin-4-yl)amino]-N-propyl-5H-pyrrolo[2,3-b]pyrazine-7-carboxamide] |  |  | 
6 | 7.49 | 5.36 | > 360 min | C=CC(=O)N1CC[C@H](Nc2cnc3c(n2)c(C(=O)NCC)cn3C)C[C@@H]1C (single isomer, unassigned) [Example 350] |  |  | 
7 | 8.54 | 6.08 | 331 min | C=CC(=O)N1CC[C@@H](Nc2cnc3c(n2)c(C(=O)NCC)cn3C)C[C@H]1C (single isomer, unassigned) [Example 351] |  |  | 
8 | 8.70 | 6.59 |  | C=CC(=O)N1CCN(c2cnc3[nH]cc(C(=O)N[C@H](C)CC#N)c3n2)CC1(C)C [Example 152, 2-(4-acryloyl-3,3-dimethylpiperazin-1-yl)-N-[(2R)-1-cyanopropan-2-yl]-5H-pyrrolo[2,3-b]pyrazine-7-carboxamide] | 6.29 |  | 
9 | 9.36 | 7.27 |  | C=CC(=O)N1CCC(Oc2cnc3[nH]cc(C(=O)N[C@H]4CC[C@H](F)C4)c3n2)CC1 [Example 210, 2-[(1-acryloylpiperidin-4-yl)oxy]-N-[(1S,3S)-3-fluorocyclopentyl]-5H-pyrrolo[2,3-b]pyrazine-7-carboxamide] | 6.49 |  | 

The remaining lines, values behind:

Row | Compound | pIC50 (JAK3 enzyme [1]) | pIC50 (JAK3 enzyme [2]) | half-life at 1 μM [3] | pIC50 [4] | Human blood stability t1/2 [3] | IC50 ([4]; Homo sapiens, PBMC, read-out: PBMC IL15_pSTAT5_IC50 (nM))
10 | C=CC(=O)N1CC[C@H](Oc2cnc3[nH]cc(C(=O)NCC)c3n2)C[C@H]1C (single isomer, unassigned) [Example 78] | 8.74 | 6.50 | > 360 min | 6.03 |  | 
11 | C=CC(=O)N1CCC(Oc2cnc3[nH]cc(-c4nnco4)c3n2)CC1 [Example 128, 1-(4-{[7-(1,3,4-Oxadiazol-2-yl)-5H-pyrrolo[2,3-b]pyrazin-2-yl]oxy}piperidin-1-yl)propan-2-en-1-one] | 8.18 | 6.10 | > 360 min |  |  | 
12 | C=CC(=O)N1C[C@H](Nc2ncnc3[nH]ccc23)C[C@H](O)[C@@H]1C [Example 133] | 8.95 | 7.12 |  | 6.52 | 238 min | 
13 | C=CC(=O)N1CC[C@H](Nc2cnc3[nH]cc(C(=O)N[C@H](C)COC)c3n2)C[C@@H]1C (single isomer, unassigned) [Example 57] | 8.35 | 6.62 | > 360 min |  |  | 3220 nM
14 | C=CC(=O)N1CCC(Oc2cnc3[nH]cc(-c4n[nH]c(C)n4)c3n2)CC1 [Example 115, 1-(4-{[7-(5-Methyl-1H-1,2,4-triazol-3-yl)-5H-pyrrolo[2,3-b]pyrazin-2-yl]oxy}piperidin-1-yl)prop-2-en-1-one] | 8.08 | 6.03 | 226 min |  |  | 
15 | C=CC(=O)N1CCC(Oc2cnc3[nH]cc(-c4nnc[nH]4)c3n2)CC1 [Example 120, 1-(4-{[7-(4H-1,2,4-Triazol-3-yl)-5H-pyrrolo[2,3-b]pyrazin-2-yl]oxy}piperidin-1-yl)prop-2-en-1-one] | 8.35 | 6.14 | > 360 min |  |  | 
16 | C=CC(=O)N1CCC[C@@H](Oc2cnc3[nH]cc(C(=O)N[C@@H](C)COC)c3n2)C1 [Example 49, 2-{[(3R)-1-acryloylpiperidin-3-yl]oxy}-N-[(2S)-1-methoxypropan-2-yl]-5H-pyrrolo[2,3-b]pyrazine-7-carboxamide] | 7.57 | 5.68 | 196 min |  |  | 
17 | C=CC(=O)N1CCC(Nc2cnc3[nH]cc(C(=O)NCCCC(F)(F)F)c3n2)CC1C (racemic) [Example 282, Racemic-2-[(1-acryloyl-2-methylpiperidin-4-yl)amino]-N-(4,4,4-trifluorobulyl)-5H-pyrrolo[2,3-b]pyrazine-7-carboxamide] | 8.61 | 6.44 |  | 5.51 |  | 
18 | C=CC(=O)N1CCC(Nc2cnc3[nH]cc(C(=O)NCc4nc(C)cc(C(F)(F)F)n4)c3n2)CC1 [Example 171, 2-[(1-acryloylpiperidin-4-yl)amino]-N-{[4-methyl-6-(trifluoromethyl)pyrimidin-2-yl]methyl}-5H-pyrrolo[2,3-b]pyrazine-7-carboxamide] | 9.03 | 7.26 |  | 6.02 |  | 
19 | C=CC(=O)N1C[C@@H](Nc2cnc3[nH]cc(C(=O)N[C@H](C)COC)c3n2)CC[C@H]1C (single isomer, unassigned) [Example 70] | 8.04 | 5.86 | > 360 min |  |  | 
20 | C=CC(=O)N1CCN(c2cnc3[nH]cc(C(=O)NC(CC)COC)c3n2)CC1(C)C (racemic) [Example 141, Racemic-2-(4-acryloyl-3,3-dimethylpiperazin-1-yl)-N-(1-methoxybutan-2-yl)-5H-pyrrolo[2,3-b]pyrazine-7-carboxamide] | 9.10 | 6.99 |  | 6.46 |  | 
21 | C=CC(=O)N1CCC(Oc2cnc3[nH]cc(C(=O)NC(CC)C4(O)CCC4)c3n2)CC1 (racemic) [Example 213, Racemic-2-[(1-acryloylpiperidin-4-yl)oxy]-N-[1-(1-hydroxycyclobutyl)propyl]-5H-pyrrolo[2,3-b]pyrazine-7-carboxamide] | 8.51 | 6.46 |  | 5.76 |  | 
22 | C=CC(=O)N1C[C@H](Nc2cnc3[nH]cc(C(=O)N[C@@H](C)COC)c3n2)CC[C@@H]1C (single isomer, unassigned) [Example 66] | 8.21 | 6.39 | > 360 min |  |  | 
23 | C=CC(=O)N1CCC(Oc2cnc3[nH]cc(C(=O)NCC(C)(F)F)c3n2)CC1 [Example 215, 2-[(1-acryloylpiperidin-4-yl)oxy]-N-(2,2-difluoropropyl)-5H-pyrrolo[2,3-b]pyrazine-7-carboxamide] | 9.11 | 7.01 |  | 6.21 |  | 
